Assays:
Glucagon receptor [1] = target: T1, Glucagon receptor (Homo sapiens, UniProt P47871); assay: Binding affinity of first enantiomer (E1) against human glucagon receptor was determined
Glucagon receptor [2] = target: T1, Glucagon receptor; assay: Binding affinity of second diastereomer (D2) against human glucagon receptor was determined
Glucagon receptor [3] = target: T1, Glucagon receptor; assay: Binding affinity of second enantiomer (E2) against human glucagon receptor was determined
Glucagon receptor [4] = target: T1, Glucagon receptor; assay: Binding affinity of first diastereomer (D1) against human glucagon receptor was determined
[5] = Compound was evaluated for the functional activity by the inhibition of cAMP production

T1 sequence (P47871 whole entry): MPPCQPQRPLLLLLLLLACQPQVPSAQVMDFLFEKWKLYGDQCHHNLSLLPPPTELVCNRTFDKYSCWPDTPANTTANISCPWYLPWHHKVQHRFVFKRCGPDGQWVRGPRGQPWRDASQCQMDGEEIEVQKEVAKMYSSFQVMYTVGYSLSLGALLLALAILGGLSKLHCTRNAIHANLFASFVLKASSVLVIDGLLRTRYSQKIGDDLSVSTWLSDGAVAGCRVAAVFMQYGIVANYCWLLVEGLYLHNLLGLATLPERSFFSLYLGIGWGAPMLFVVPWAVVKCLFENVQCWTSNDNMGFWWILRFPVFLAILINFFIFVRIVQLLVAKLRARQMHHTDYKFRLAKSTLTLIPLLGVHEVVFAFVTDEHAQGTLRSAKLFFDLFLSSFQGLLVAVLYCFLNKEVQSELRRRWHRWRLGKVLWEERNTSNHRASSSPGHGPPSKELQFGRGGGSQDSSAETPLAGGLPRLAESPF

Structure (SMILES) | IC50 (Glucagon receptor [1]) [nM] | IC50 (Glucagon receptor [2]) [nM] | IC50 (Glucagon receptor [3]) [nM] | IC50 (Glucagon receptor [4]) [nM] | IC50 [5] [nM]
CCCc1c(C(C)C)nc(C(C)C)c(C(C)O)c1-c1ccccc1O (centres undefined) | 190 | 1100 | 25 | 40 | 
CCCCCc1c(C(C)C)nc(C(C)C)c(C(C)O)c1-c1ccc(F)cc1O (centres undefined) | 8000 | 2200 | 12 | 30 | 

Further lines, results first:

IC50 (Glucagon receptor [1]) [nM] | IC50 (Glucagon receptor [2]) [nM] | IC50 (Glucagon receptor [3]) [nM] | IC50 (Glucagon receptor [4]) [nM] | IC50 [5] [nM] | Structure (SMILES)
5000 | 2000 | 16 | 20 |  | CCc1c(C(C)C)nc(C(C)C)c(C(C)O)c1-c1ccc(F)cc1O (centres undefined)
 | 1000 |  | 28 |  | CCCCc1c(C(C)C)nc(C(C)C)c(C(C)O)c1-c1ccc(F)cc1O (centres undefined)
8000 | 1000 | 10 | 18 | 6.5 | CCCc1c(C(C)C)nc(C(C)C)c(C(C)O)c1-c1ccc(F)cc1O (centres undefined)

Source: ChEMBL document CHEMBL1135956 (Bioorg Med Chem Lett, 2002)
